Test results from patent US10561703B2, “Method of modulating sex hormone levels using a sex hormone secretion modulator” (GEMVAX & KAEL CO., LTD., priority 2013, dated 2020).

System: LH
Assay: LH level in blood (serum CLIA) after repeated sc PEP-1
Type: in vivo, SD rats
Description: PEP-1 (peptide of SEQ ID NO: 1), lyophilized white powder, obtained according to the method mentioned in example 1 was dissolved in 0.9% of saline, considering the correction factor of PEP-1 (purity: 94.13%, content: 92.36%, correction factor: 1.15). 50 mg/mL stock solution was further diluted into 20 mg/mL, 2 mg/mL, and 1 mg/mL with 0.9% saline, and stored at 4° C. for a week until the use.
The purpose of this example is to confirm the change of sexual hormones in blood from SD rats with 7 days repeated daily administration of SEQ ID NO: 1 peptide, PEP-1. This experiment followed the Ethics Regulation of Animal Test by KAMSI Inc. (Korea Animal Medical Science Institute). In addition, this experiment, Non-GLP experiment, referred to the MFDS (Ministry of Food and Drug Safety) notification; Agent 2013-40 (5th April 2013), Principles of Good Laboratory Practice (1997).
SPF Rats (Crlj:CD(SD)) were purchased from ORIENTBio Inc. (Mokdong-ri, Buk-myeon, Gapyeong-gun, Gyeonggi-do, Republic of Korea). 75 male (6.5 weeks old and 190˜210 g) and 75 female (6.5 weeks old and 160˜180 g) rats were monitored for 4 days, and 64 of male and female rats (each) were selected for the experiment. Raising condition is as follows; 23±3° C. of temperature, […] of relative humidity, 10˜20 times/hr of number of air changes, 12 hours (8 a.m.˜8 p.m.) of lighting with 150˜300 Lux of intensity.
64 male and female […] (mentioned above) were divided into 8 groups. Administration regimen, for example, drugs, routes, dosages, and volumes were as follows:
The detailed administration regimen is as follows; once a day, twice a day and twice a week in each experimental group. Injection initiated at 10 a.m. every day, and each rat was injected at one minute intervals. Rats in Group 9, 10, 13 and 14 were injected twice a week. Administration of high dose test agent preceded that of low dose. The volume of injection was calculated using recently measured weight of rats, and it was 5 mL/kg. Subcutaneous injection was performed as follows; assistant tilted the back of rat upward, and experimenter sterilized the back of rat with 70% alcohol, followed by subcutaneous injection of test agent with 26 G syringe.
1.4 mL of blood sample (0.7 mL of serum) was collected after measurement of weight (Day 0). Next day (1 Day), 1.4 mL of blood sample (0.7 mL of serum) was collected twice after injection of test agent (4 hrs and 8 hrs after administration of test agent). For next 6 days (Day 2˜Day 7), 1.4 mL of blood was extracted once everyday (4 hours after injection of test agent). Dose and volume of test agent of each group followed the Table 3, and injection time zone was same every day. Blood was extracted from the jugular vein, and left at room temperature for 30 minutes. Serum was separated using centrifugation (10,000 rpm for 5 minutes), and stored at −70±5° C. in Deep freezer until the use. Blood extraction from each subject was done in the same time zone every day.
A CLIA (Chemi-Luminescence Immune Assay) Kit was used to analyze Testosterone, Estradiol E2, FSH (Follicle stimulating hormone), and LH (Luteinizing hormone). Analysis was completed within 48 hrs after blood extraction (Laboratory Medicine Department, Chung-Ang University Hospital), and detailed method is as follows; One-way ANOVA was used to verify the comparison between the vehicle and PEP-1, and between different doses of PEP-1. For further analysis, Duncan test was used as parametric test and Dunnett's test as non-parametric test. p<0.05 represents the statistical significance, and all statistical analysis was carried out with SPSS 10.1.
LH was analyzed using the samples prepared from example 2. 50 μL of serum was used for analysis. Fundamentals of analysis is Two-site sandwich immunoassay based on direct chemi-luminescent. As mentioned in example 2, CLIA (Chemi-luminescence immune assay) Kit was used, following the manufacture's protocol.

EARPALLTSRLRFIPK (listed as Homo sapiens) [PEP-1, hormone secretion modulator / GnRH analog]
LH level in blood (G3 Male 5 mg/kg sc 1/day x7, 7 days): 0.13 mIU/mL | LH level in blood (G4 Female 5 mg/kg sc 1/day x7, 4 hr): 0.16 mIU/mL | LH level in blood (G4 Female 5 mg/kg sc 1/day x7, 8 hr): 0.24 mIU/mL | LH level in blood (G4 Female 5 mg/kg sc 1/day x7, 2 days): 0.19 mIU/mL | LH level in blood (G4 Female 5 mg/kg sc 1/day x7, 3 days): 0.13 mIU/mL | LH level in blood (G4 Female 5 mg/kg sc 1/day x7, 4 days): 0.13 mIU/mL | LH level in blood (G4 Female 5 mg/kg sc 1/day x7, 5 days): 0.14 mIU/mL | LH level in blood (G4 Female 5 mg/kg sc 1/day x7, 6 days): 0.14 mIU/mL | LH level in blood (G4 Female 5 mg/kg sc 1/day x7, 7 days): 0.16 mIU/mL | LH level in blood (G4 Female 5 mg/kg sc 1/day x7, pre): 0.12 mIU/mL | LH level in blood (G6 Female 10 mg/kg sc 1/day x7, 4 hr): 0.41 mIU/mL | LH level in blood (G6 Female 10 mg/kg sc 1/day x7, 8 hr): 0.26 mIU/mL | LH level in blood (G6 Female 10 mg/kg sc 1/day x7, 2 days): 0.22 mIU/mL | LH level in blood (G6 Female 10 mg/kg sc 1/day x7, 3 days): 0.19 mIU/mL | LH level in blood (G6 Female 10 mg/kg sc 1/day x7, 4 days): 0.15 mIU/mL | LH level in blood (G6 Female 10 mg/kg sc 1/day x7, 5 days): 0.15 mIU/mL | LH level in blood (G6 Female 10 mg/kg sc 1/day x7, 6 days): 0.17 mIU/mL | LH level in blood (G6 Female 10 mg/kg sc 1/day x7, 7 days): 0.16 mIU/mL | LH level in blood (G6 Female 10 mg/kg sc 1/day x7, pre): 0.12 mIU/mL | LH level in blood (G8 Female 10 mg/kg sc 2/day x4, 4 hr): 0.22 mIU/mL | LH level in blood (G8 Female 10 mg/kg sc 2/day x4, 8 hr): 0.15 mIU/mL | LH level in blood (G8 Female 10 mg/kg sc 2/day x4, 2 days): 0.17 mIU/mL | LH level in blood (G8 Female 10 mg/kg sc 2/day x4, 3 days): 0.28 mIU/mL | LH level in blood (G8 Female 10 mg/kg sc 2/day x4, 4 days): 0.13 mIU/mL | LH level in blood (G8 Female 10 mg/kg sc 2/day x4, 5 days): 0.23 mIU/mL | LH level in blood (G8 Female 10 mg/kg sc 2/day x4, 6 days): 0.15 mIU/mL | LH level in blood (G8 Female 10 mg/kg sc 2/day x4, 7 days): 0.28 mIU/mL | LH level in blood (G8 Female 10 mg/kg sc 2/day x4, pre): 0.13 mIU/mL | LH level in blood (G9 Male 10 mg/kg sc 2/week x2 (days 1,7), 4 hr): 0.62 mIU/mL | LH level in blood (G9 Male 10 mg/kg sc 2/week x2 (days 1,7), 8 hr): 0.14 mIU/mL | LH level in blood (G9 Male 10 mg/kg sc 2/week x2 (days 1,7), 2 days): 0.12 mIU/mL | LH level in blood (G9 Male 10 mg/kg sc 2/week x2 (days 1,7), 3 days): 0.12 mIU/mL | LH level in blood (G9 Male 10 mg/kg sc 2/week x2 (days 1,7), 4 days): 0.13 mIU/mL | LH level in blood (G9 Male 10 mg/kg sc 2/week x2 (days 1,7), 5 days): 0.14 mIU/mL | LH level in blood (G9 Male 10 mg/kg sc 2/week x2 (days 1,7), 6 days): 0.11 mIU/mL | LH level in blood (G9 Male 10 mg/kg sc 2/week x2 (days 1,7), 7 days): 0.67 mIU/mL | LH level in blood (G9 Male 10 mg/kg sc 2/week x2 (days 1,7), pre): 0.12 mIU/mL | LH level in blood (G10 Female 10 mg/kg sc 2/week x2 (days 1,7), 4 hr): 0.25 mIU/mL | LH level in blood (G10 Female 10 mg/kg sc 2/week x2 (days 1,7), 8 hr): 0.23 mIU/mL | LH level in blood (G10 Female 10 mg/kg sc 2/week x2 (days 1,7), 2 days): 0.17 mIU/mL | LH level in blood (G10 Female 10 mg/kg sc 2/week x2 (days 1,7), 3 days): 0.14 mIU/mL | LH level in blood (G10 Female 10 mg/kg sc 2/week x2 (days 1,7), 4 days): 0.13 mIU/mL | LH level in blood (G10 Female 10 mg/kg sc 2/week x2 (days 1,7), 5 days): 0.15 mIU/mL | LH level in blood (G10 Female 10 mg/kg sc 2/week x2 (days 1,7), 6 days): 0.12 mIU/mL | LH level in blood (G10 Female 10 mg/kg sc 2/week x2 (days 1,7), 7 days): 0.26 mIU/mL | LH level in blood (G10 Female 10 mg/kg sc 2/week x2 (days 1,7), pre): 0.25 mIU/mL | LH level in blood (G11 Male 100 mg/kg sc 1/day x7, 4 hr): 1.16 mIU/mL | LH level in blood (G11 Male 100 mg/kg sc 1/day x7, 8 hr): 0.18 mIU/mL | LH level in blood (G11 Male 100 mg/kg sc 1/day x7, 2 days): 0.28 mIU/mL | LH level in blood (G11 Male 100 mg/kg sc 1/day x7, 3 days): 0.23 mIU/mL | LH level in blood (G11 Male 100 mg/kg sc 1/day x7, 4 days): 0.18 mIU/mL
